{"source": "ChEMBL document CHEMBL3639120", "about": "“Pyridone and aza-pyridone compounds and methods of use” (2013)", "biological_target": "Tyrosine-protein kinase BTK (Homo sapiens, UniProt Q06187)", "sequence (Q06187 whole entry)": "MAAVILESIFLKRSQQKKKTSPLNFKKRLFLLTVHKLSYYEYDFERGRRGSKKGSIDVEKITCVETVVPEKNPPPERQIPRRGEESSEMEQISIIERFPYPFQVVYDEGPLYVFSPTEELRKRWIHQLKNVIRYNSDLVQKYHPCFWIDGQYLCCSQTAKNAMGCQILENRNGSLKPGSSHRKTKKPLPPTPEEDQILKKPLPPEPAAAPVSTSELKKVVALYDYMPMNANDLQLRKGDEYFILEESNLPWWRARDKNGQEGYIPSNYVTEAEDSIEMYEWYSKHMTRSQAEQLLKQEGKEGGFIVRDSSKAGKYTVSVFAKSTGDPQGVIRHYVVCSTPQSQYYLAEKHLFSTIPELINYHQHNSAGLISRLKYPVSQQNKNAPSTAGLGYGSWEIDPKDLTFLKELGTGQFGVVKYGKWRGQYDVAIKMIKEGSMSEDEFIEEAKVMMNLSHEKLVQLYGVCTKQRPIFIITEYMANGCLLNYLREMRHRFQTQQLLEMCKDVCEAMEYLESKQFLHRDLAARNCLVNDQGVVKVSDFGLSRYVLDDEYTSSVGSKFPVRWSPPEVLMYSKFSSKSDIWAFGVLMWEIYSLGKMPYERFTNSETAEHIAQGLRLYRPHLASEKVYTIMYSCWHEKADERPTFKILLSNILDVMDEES", "experiment": "Biochemical Assay: A generalized procedure for a standard biochemical Btk Kinase Assay that can be used to test Formula I compounds. Alternatively, the Lanthascreen assay can be used to evaluate Btk activity through quantification of its phosphorylated peptide product. The FRET (Fluorescence Resonance Energy Transfer) that occurs between the fluorescein on the peptide product and the terbium on …"}
{"smiles": "Cn1cc(-c2cccc(N3CCn4c(cc5c4CC(C)(C)C5)C3=O)c2CO)cc(Nc2ccc(N3CCN(C4COC4)CC3)cn2)c1=O", "values": [{"measurement": "IC50", "value": 5.2, "unit": "nM"}]}
